In patent US11279714B2, “Anti-infective compounds” (priority 2014, dated 2022):
Converted amounts (≈) assume the structure as drawn.

Columns and labels:
[1] = test system: Raw 264.7 cells infected with H37Rv-GFP; assay: microbe, parasite or virus in culture; assay type: cell-based, M. tuberculosis; settings: for MIC50: Mycobacterium tuberculosis, H37RV, 120 h, read-out: QIM (MIC50)
[2] = test system: M. tuberculosis H37Rv expressing the green fluorescent protein (H37Rv-GFP); assay: microbe, parasite or virus in culture; assay type: cell-based; settings: for MIC50: Mycobacterium tuberculosis, H37RV, 120 h, read-out: QUM (MIC50)

Structure (SMILES) | MIC50 [1] [µM] | MIC50 [2] [µM] | melting point [°C] | QIM (MIC50, uM) [1] | QUM (MIC50, uM) [2]
CN(C)C(=O)C1CCN(c2nc3sc(C(=O)Nc4ccc5oc(CN6CCOCC6)nc5c4)cc3s2)CC1 [Compound 196] | 1 to 20 (≈ 0.555 to 11.1 µg/mL) | 1 to 20 (≈ 0.555 to 11.1 µg/mL) | 239 | – | –
O=C(Nc1ccc(F)cc1)c1cc2sc(N3CCC(O)CC3)nc2s1 [Compound 134] | < 1 | < 1 | 241.7 | – | –
O=C(Nc1ccn(-c2ccccc2)n1)c1cc2sc(N3CCOCC3)nc2s1 [Compound 165] | 1 to 20 (≈ 0.412 to 8.23 µg/mL) | > 20 | 257.8 | – | –
Cc1nc2cc(NC(=O)c3cc4sc(N5CCNCC5)nc4s3)ccc2o1 [Compound 140] | 1 to 20 (≈ 0.4 to 7.99 µg/mL) | 1 to 20 (≈ 0.4 to 7.99 µg/mL) | 235.3 | – | –
COc1ccc(CNc2nc3sc(C(=O)Nc4ccc(OC)cc4)cc3s2)cc1 [Compound 63] | < 1 | > 20 | 243 | – | –
CC(C)(C)OC(=O)n1ncc2cc(NC(=O)c3cc4sc(N5CCOCC5)nc4s3)ccc21 [Compound 88] | > 20 | > 20 | 331.7 | – | –
O=C(Nc1cccc(OCc2ccccc2)c1)c1cc2sc(N3CCOCC3)nc2s1 [Compound 109] | > 20 | > 20 | 223.4 | – | –
Cc1nc2cc(NC(=O)c3cc4sc(N5CCC(O)CC5)nc4s3)ccc2o1 [Compound 122] | < 1 | < 1 | 238.5 | – | –
Cn1cnc2cc(NC(=O)c3cc4sc(N5CCOCC5)nc4s3)ccc21 [Compound 116] | 1 to 20 (≈ 0.4 to 7.99 µg/mL) | > 20 | 291 | – | –
COC(=O)C1CCC(NC(=O)c2cc3sc(N4CCCCC4)nc3s2)CC1 (stereo not drawn) [Compound 60] | 1 to 20 (≈ 0.408 to 8.15 µg/mL) | 1 to 20 (≈ 0.408 to 8.15 µg/mL) | 74 | – | –
Cc1cc2cc(NC(=O)c3cc4sc(N5CCOCC5)nc4s3)ccc2o1 [Compound 135] | < 1 | 1 to 20 (≈ 0.399 to 7.99 µg/mL) | 231.3 | – | –
Cc1nc2c(NC(=O)c3cc4sc(N5CCOCC5)nc4s3)cccc2o1 [Compound 102] | > 20 | > 20 | 209.3 | – | –
O=C(Nc1ccc(O)cc1)c1cc2nc(N3CCCCC3)sc2s1 [Compound 18] | > 20 | 1 to 20 (≈ 0.359 to 7.19 µg/mL) | 266 | – | –
COC1CCN(c2nc3sc(C(=O)Nc4ccc5oc(C)nc5c4)cc3s2)CC1 [Compound 124] | < 1 | < 1 | 237.9 | – | –
O=C(Nc1ccc(F)cc1)c1cc2sc(N3CCC(CO)CC3)nc2s1 [Compound 142] | < 1 | < 1 | 246.3 | – | –
Cc1nc2cc(NC(=O)C3CCc4nc(N5CCOCC5)sc4C3)ccc2o1 (stereo not drawn) [Compound 170] | > 20 | > 20 | 239 | – | –
COc1ccc(NC(=O)c2cc3sc(N4CCCCC4)nc3s2)cn1 [Compound 47] | < 1 | < 1 | 232.4 | – | –
Cc1nc2cc(NC(=O)c3cc4sc(N5CCOCC5)nc4s3)c(Cl)cc2o1 [Compound 141] | > 20 | > 20 | 277 | – | –
COc1ncc(NC(=O)c2cc3sc(N4CCCCC4)nc3s2)cn1 [Compound 55] | < 1 | > 20 | 219 | – | –

Structure (SMILES) | MIC50 [1] [µM] | MIC50 [2] [µM] | melting point [°C] | QIM (MIC50, uM) [1] | QUM (MIC50, uM) [2]
Cc1nc2ccc(NC(=O)c3cc4sc(N5CCOCC5)nc4s3)cc2o1 [Compound 85] | < 1 | < 1 | 273.6 | – | –
Cc1nc2cc(NC(=O)c3cc4sc(N5CCOC(C(=O)N(C)C)C5)nc4s3)ccc2o1 (stereo not drawn) [Compound 169] | 1 to 20 (≈ 0.472 to 9.43 µg/mL) | 1 to 20 (≈ 0.472 to 9.43 µg/mL) | 247.5 | – | –
O=C(Nc1ccc(F)c(F)c1)c1cc2sc(N3CCCCC3)nc2s1 [Compound 36] | < 1 | 1 to 20 (≈ 0.379 to 7.59 µg/mL) | 218 | – | –
O=C(Nc1ccc2ncccc2c1)c1cc2sc(N3CCCCC3)nc2s1 [Compound 40] | < 1 | 1 to 20 (≈ 0.395 to 7.89 µg/mL) | 279.5 | – | –
Cc1nc2cc(NC(=O)c3cc4sc(N5CCC(C(=O)NCc6ccccc6)CC5)nc4s3)ccc2o1 [Compound 186] | < 1 | > 20 | 264.9 | – | –
O=C(Nc1ccc(OC(F)(F)F)cc1)c1cc2nc(N3CCCCC3)sc2s1 [Compound 14] | < 1 | 1 to 20 (≈ 0.427 to 8.55 µg/mL) | 238 | – | –
O=C(Nc1ccc(Oc2ccccc2)cc1)c1cc2sc(N3CCCCC3)nc2s1 [Compound 61] | < 1 | 1 to 20 (≈ 0.436 to 8.71 µg/mL) | 201 | – | –
CN(C)C(=O)C1CCN(c2nc3sc(C(=O)Nc4ccc(F)nc4)cc3s2)CC1 [Compound 137] | 1 to 20 (≈ 0.434 to 8.67 µg/mL) | < 1 | 295.9 | – | –
Cc1nc2ccc(NC(=O)c3cc4sc(N5CCOCC5)nc4s3)cc2o1.Cl [Compound 86] | – | – | 272.2 | +++ (+++ indicates <1 uM) | +++ (+++ indicates <1 uM)
O=C(Nc1ccc(C(F)(F)F)cc1)c1cc2sc(N3CCCCC3)nc2s1 [Compound 41] | < 1 | > 20 | 289.2 | – | –
COc1ccc(CCNC(=O)c2cc3nc(N4CCCCC4)sc3s2)cc1 [Compound 22] | 1 to 20 (≈ 0.402 to 8.03 µg/mL) | 1 to 20 (≈ 0.402 to 8.03 µg/mL) | 188 | – | –
O=C(Nc1ccc(CN2CCC(c3ccc(Cl)cc3)CC2)cc1)c1cc2sc(N3CCOCC3)nc2s1 [Compound 200] | > 20 | > 20 | 254.6 | – | –
COc1ccc(NC(=O)c2cc3sc(N4CC5CC4CN5)nc3s2)cc1 (stereo not drawn) [Compound 94] | > 20 | > 20 | 161 | – | –
COc1cc(NC(=O)c2cc3nc(N4CCCCC4)sc3s2)cc(OC)c1 [Compound 4] | > 20 | > 20 | 231.2 | – | –
O=C(Nc1ccc(-c2cc3n(n2)CCO3)cc1)c1cc2sc(N3CCOCC3)nc2s1 [Compound 164] | > 20 | > 20 | 361.2 | – | –
CCc1ccc(NC(=O)c2cc3sc(N4CCCCC4)nc3s2)cc1 [Compound 38] | < 1 | 1 to 20 (≈ 0.372 to 7.43 µg/mL) | 198 | – | –
COc1ccc(NC(=O)c2cc3sc(NC(=O)C4CCCCC4)nc3s2)cc1 [Compound 65] | 1 to 20 (≈ 0.416 to 8.31 µg/mL) | > 20 | 271 | – | –
Cc1nc2ccc(NC(=O)c3cc4sc(N5CCCCC5)nc4s3)cc2o1 [Compound 48] | < 1 | < 1 | 259.2 | – | –
O=C(Nc1ccc(N2CCC(Cc3ccc(F)cc3)CC2)cc1)c1cc2sc(N3CCOCC3)nc2s1 [Compound 183] | < 1 | > 20 | 246 | – | –

Structure (SMILES) | MIC50 [1] [µM] | MIC50 [2] [µM] | melting point [°C] | QIM (MIC50, uM) [1] | QUM (MIC50, uM) [2]
CCc1cc2oc(C)nc2cc1NC(=O)c1cc2sc(N3CCOCC3)nc2s1 [Compound 150] | > 20 | > 20 | 244 | – | –
O=C(Nc1ccc(N2CCC(c3ccc(Cl)cc3)CC2)cc1)c1cc2sc(N3CCOCC3)nc2s1 [Compound 190] | > 20 | > 20 | 281.1 | – | –
Cc1nc2cc(Cl)c(NC(=O)c3cc4sc(N5CCOCC5)nc4s3)cc2o1 [Compound 147] | > 20 | > 20 | 275.3 | – | –
O=C(Nc1ccc(F)c(F)c1)c1cc2nc(N3CCCCC3)sc2s1 [Compound 3] | < 1 | 1 to 20 (≈ 0.379 to 7.59 µg/mL) | 246.3 | – | –
COc1ccc(CCNC(=O)c2cc3sc(N4CCCCC4)nc3s2)cc1 [Compound 42] | < 1 | 1 to 20 (≈ 0.402 to 8.03 µg/mL) | 177.2 | – | –
Cc1nc2cc(NC(=O)c3cc4sc(N5CCC(C(=O)N(C)C)C5)nc4s3)ccc2o1 (stereo not drawn) [Compound 192] | 1 to 20 (≈ 0.456 to 9.11 µg/mL) | 1 to 20 (≈ 0.456 to 9.11 µg/mL) | 274 | – | –
O=C(Nc1ccc(C(F)(F)F)cc1)c1cc2sc(N3CCOCC3)nc2s1 [Compound 107] | < 1 | > 20 | 259.3 | – | –
CN(C)C(=O)C1CCN(c2nc3sc(C(=O)n4nc(-c5ccc(N)cc5)cc4O)cc3s2)CC1 [Compound 198] | > 20 | > 20 | 269 | – | –
CC(C)(C)OC(=O)Nc1cc2sc(N3CCCCC3)nc2s1 [Compound 81] | > 20 | > 20 | 157 | – | –
Nc1ccc(OC(=O)c2cc3nc(N4CCCCC4)sc3s2)cc1 [Compound 9] | > 20 | > 20 | 153 | – | –
COc1ccc(NC(=O)c2cc3sc(N4CCCC(OCc5ccccc5)C4)nc3s2)cc1 (stereo not drawn) [Compound 95] | < 1 | > 20 | 169 | – | –
Cc1nc2cc(NC(=O)c3cc4sc(N5CCC(C(=O)N(C)C)CC5)nc4s3)ccc2o1 [Compound 138] | < 1 | < 1 | 284.2 | – | –
O=C(Nc1cccc(Br)c1)c1cc2sc(N3CCOCC3)nc2s1 [Compound 118] | < 1 | > 20 | 199 | – | –
O=C(Nc1ccc(F)cc1)c1cc2sc(N3CCCCC3)nc2s1 [Compound 53] | < 1 | < 1 | 233 | – | –
COc1ccc(NC(=O)c2cc3sc(N4CCCC(O)C4)nc3s2)cc1 (stereo not drawn) [Compound 96] | < 1 | < 1 | 238 | – | –
COc1cc(NC(=O)c2cc3sc(N4CCCCC4)nc3s2)cc(OC)c1 [Compound 37] | > 20 | > 20 | 148 | – | –
O=C(Nc1ccc2[nH]ncc2c1)c1cc2sc(N3CCOCC3)nc2s1 [Compound 89] | > 20 | > 20 | 329.8 | – | –
COc1ccc(NC(=O)c2csc3nc(N4CCCCC4)sc23)cc1 [Compound 73] | > 20 | > 20 | 209.8 | – | –
